Results: BindingDB's records for patent WO2022098970 (Eli Lilly, 2022)
pIC50: −log10 of the molar value.

Columns and labels:
Assay in all cases: RET Enzyme Assay
[1] = target: Proto-oncogene tyrosine-protein kinase receptor Ret [G810S] (Homo sapiens, UniProt P07949, G810S)
Description: (§1) Compounds of formulas I, la to lx, Ila to IIx, and/or Illa to IIIx are screened for their ability to inhibit wildtype, V804M, and G810S mutant RET kinase using CisBio s HTRF KinEASE -TK assay technology. N-terminal GST tagged recombinant human RET cytoplasmic domain (aa 658-end) from Eurofins (1.25 nM RET; Catalog No. 14-570M) or N-terminal GST tagged recombinant human V804M mutant RET cytoplasmic domain (aa 658-end) from Millipore (1.25 nM enzyme; Catalog No. 14-760) or N-Terminal GST-tagged recombinant human G810S (aa-658-end) (1.25 nM Enzyme; produced in insect cells) is incubated with 62.5 nM TK-substrate biotin (CisBio, part of Catalog No. 62TK0PEC) and 1 mM ATP along with test compound (0.4% final DMSO in the assay) in a IX Cisbuio enzymatic buffer consisting of […], 5 mM MgCh, 0.04% BSA and 0.05% Tween20 in a volume of 10 pL. Compounds are typically prepared in a threefold serial dilution in DMSO and added to the assay to give the appropriate final concentration. After a 40-60 min (40 min for V804M, 60 min for WT and G810S) incubation at 22 °C, the reaction is quenched by adding quench solution (10 pL) containing 7.8 nM Streptavidine-XL665 and 0.5X TK-ab-Cryptate in HTRF detection buffer (all from CisBio, part of Cat. No. 62TK0PEC). After a 60-80 min incubation (60 minutes for WT, 80 minutes for V804M and G810S) at 22 °C, the extent of reaction is determined using a PHERastar plate reader via HTRF detection at excitation/emission 337/665 nm. Percent of inhibition is calculated with 0% inhibition referring to control conditions containing no compound (0.4% DMSO only) and 100% inhibition represented by conditions containing no enzyme. The % inhibition values are fit to a 4 parameter logistic curve, and the determined IC5o value is defined as the estimated concentration of inhibitor at the inflexion point of the fitted curve.

[2] = target: Proto-oncogene tyrosine-protein kinase receptor Ret (Homo sapiens, UniProt P07949)
Description: as §1

[3] = target: Proto-oncogene tyrosine-protein kinase receptor Ret [V804M] (Human, UniProt P07949, V804M)
Description: as §1

Proto-oncogene tyrosine-protein kinase receptor Ret [V804M], sequence (P07949 29-1114 V804M limits assumed): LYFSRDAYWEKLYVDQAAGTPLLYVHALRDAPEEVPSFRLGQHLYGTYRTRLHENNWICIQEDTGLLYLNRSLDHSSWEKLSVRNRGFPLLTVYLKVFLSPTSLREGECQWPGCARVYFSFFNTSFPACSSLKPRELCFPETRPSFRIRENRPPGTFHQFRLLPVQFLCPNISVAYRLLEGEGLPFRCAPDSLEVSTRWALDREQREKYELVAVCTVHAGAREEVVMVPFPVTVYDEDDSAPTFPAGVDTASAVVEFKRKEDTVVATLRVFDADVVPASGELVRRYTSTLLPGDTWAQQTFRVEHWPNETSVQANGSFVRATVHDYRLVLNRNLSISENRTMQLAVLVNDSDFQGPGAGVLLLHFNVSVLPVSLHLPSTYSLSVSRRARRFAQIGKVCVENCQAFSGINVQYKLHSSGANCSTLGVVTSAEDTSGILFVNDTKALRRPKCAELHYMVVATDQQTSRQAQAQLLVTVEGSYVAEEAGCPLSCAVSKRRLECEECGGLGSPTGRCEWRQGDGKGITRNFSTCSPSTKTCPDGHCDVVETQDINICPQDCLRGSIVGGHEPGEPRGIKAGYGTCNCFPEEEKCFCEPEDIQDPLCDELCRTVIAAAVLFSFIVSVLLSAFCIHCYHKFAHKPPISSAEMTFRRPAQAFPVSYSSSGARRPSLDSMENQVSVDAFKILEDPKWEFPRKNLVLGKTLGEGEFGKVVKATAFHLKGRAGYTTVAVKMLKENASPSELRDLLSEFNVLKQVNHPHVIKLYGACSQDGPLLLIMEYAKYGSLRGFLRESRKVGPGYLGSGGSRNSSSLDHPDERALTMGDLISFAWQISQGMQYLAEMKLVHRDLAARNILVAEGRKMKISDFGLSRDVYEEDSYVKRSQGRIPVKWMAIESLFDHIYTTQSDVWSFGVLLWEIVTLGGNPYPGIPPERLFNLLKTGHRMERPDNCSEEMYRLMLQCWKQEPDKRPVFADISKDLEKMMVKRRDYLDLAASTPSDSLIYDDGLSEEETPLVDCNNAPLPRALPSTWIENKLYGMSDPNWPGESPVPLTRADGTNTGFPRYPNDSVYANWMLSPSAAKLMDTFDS
Proto-oncogene tyrosine-protein kinase receptor Ret, sequence (P07949 whole entry): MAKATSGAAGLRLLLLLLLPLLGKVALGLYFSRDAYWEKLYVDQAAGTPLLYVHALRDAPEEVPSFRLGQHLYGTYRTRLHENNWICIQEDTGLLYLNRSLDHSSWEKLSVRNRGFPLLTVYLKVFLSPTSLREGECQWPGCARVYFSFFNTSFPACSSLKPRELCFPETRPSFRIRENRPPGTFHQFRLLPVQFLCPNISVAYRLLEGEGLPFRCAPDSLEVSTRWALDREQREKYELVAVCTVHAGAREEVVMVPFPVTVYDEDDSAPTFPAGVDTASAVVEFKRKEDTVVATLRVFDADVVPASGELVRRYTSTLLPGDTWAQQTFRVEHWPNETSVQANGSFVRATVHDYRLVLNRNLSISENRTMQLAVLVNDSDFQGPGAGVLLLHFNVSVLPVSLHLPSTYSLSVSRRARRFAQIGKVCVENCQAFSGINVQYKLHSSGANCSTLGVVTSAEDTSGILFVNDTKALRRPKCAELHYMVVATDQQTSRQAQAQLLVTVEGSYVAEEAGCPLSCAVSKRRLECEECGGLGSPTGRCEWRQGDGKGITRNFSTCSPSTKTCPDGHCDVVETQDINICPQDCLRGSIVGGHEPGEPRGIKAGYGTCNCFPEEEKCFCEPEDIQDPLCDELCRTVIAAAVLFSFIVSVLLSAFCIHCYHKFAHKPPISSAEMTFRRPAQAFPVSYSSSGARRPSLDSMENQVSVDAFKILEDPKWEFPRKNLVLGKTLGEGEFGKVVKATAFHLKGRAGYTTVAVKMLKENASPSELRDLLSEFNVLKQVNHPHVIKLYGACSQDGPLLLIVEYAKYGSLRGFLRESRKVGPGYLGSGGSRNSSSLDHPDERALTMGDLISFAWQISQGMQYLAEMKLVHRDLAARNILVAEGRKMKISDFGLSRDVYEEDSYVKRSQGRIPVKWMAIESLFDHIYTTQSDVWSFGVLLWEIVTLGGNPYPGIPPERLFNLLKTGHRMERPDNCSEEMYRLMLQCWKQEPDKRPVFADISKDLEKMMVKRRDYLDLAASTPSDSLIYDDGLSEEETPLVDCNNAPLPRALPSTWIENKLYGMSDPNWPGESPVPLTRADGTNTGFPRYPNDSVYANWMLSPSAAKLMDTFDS
Proto-oncogene tyrosine-protein kinase receptor Ret [G810S], sequence (P07949 29-1114 G810S limits assumed): as the sequence (P07949 29-1114 V804M limits assumed) above, with M776V, G782S counted along it

| pIC50 [1] | pIC50 [2] | pIC50 [3] | Structure (SMILES) |
| --- | --- | --- | --- |
| > 6.82 | > 6.82 | > 6.82 | CC(C)n1nc(-c2ccc(CC(=O)Nc3cc(C(C)(C)C(F)(F)F)no3)cc2)c(C(N)=O)c1N [WO2022098970, Example 2] |
| > 6.82 | > 6.82 | > 6.82 | CC(C)n1nc(-c2ccc(CC(=O)Nc3cc(C4(C)CCCC4)no3)cc2)c(C(N)=O)c1N [WO2022098970, Example 3] |
| > 6.82 | > 6.82 | > 6.82 | CC(C)n1nc(-c2ccc(CC(=O)Nc3cc(C45CC(F)(C4)C5)no3)cc2)c(C(N)=O)c1N [WO2022098970, Example 4] |
| > 6.82 | > 6.82 | > 6.82 | CC1(n2nc(-c3ccc(CC(=O)Nc4cc(C(C)(C)C(F)(F)F)no4)cc3)c(C(N)=O)c2N)CC1 [WO2022098970, Example 6] |
| > 6.82 | > 6.82 | > 6.82 | CC(C)n1nc(-c2ccc(CC(=O)Nc3cc(C4(C)CC4)no3)cc2)c(C(N)=O)c1N [WO2022098970, Example 7] |
| > 6.82 | > 6.82 | > 6.82 | CC(C)n1nc(-c2ccc(CC(=O)Nc3cc(C(C)(C)C(F)(F)F)n(C)n3)cc2)c(C(N)=O)c1N [WO2022098970, Example 8] |
| > 6.82 | > 6.82 | > 6.82 | CC(C)n1nc(-c2ccc(CC(=O)Nc3cc(C45CC(C(F)(F)F)(C4)C5)no3)cc2)c(C(N)=O)c1N [WO2022098970, Example 153] |
| > 6.82 | > 6.82 | > 6.82 | CC1(n2nc(-c3ccc(CC(=O)Nc4cc(-c5ccc(F)cc5Cl)no4)cc3)c(C(N)=O)c2N)CC1 [WO2022098970, Example 199] |
| > 6.82 | > 6.82 | > 6.82 | CC1(n2nc(-c3ccc(CC(=O)Nc4cc(C56CC(F)(C5)C6)no4)c(F)c3F)c(C(N)=O)c2N)CC1 [WO2022098970, Example 221] |
| > 6.82 | > 6.82 | > 6.82 | CC(C)n1nc(-c2ccc(CC(=O)Nc3cccc(C(F)(F)F)c3)cn2)c(C(N)=O)c1N [WO2022098970, Example 292] |
| > 6.82 | > 6.82 | > 6.82 | CC(C)n1nc(-c2ccc(CC(=O)Nc3cc(-c4ccccc4)no3)cn2)c(C(N)=O)c1N [WO2022098970, Example 299] |
| > 6.82 | > 6.82 | > 6.82 | CC(C)n1nc(-c2ccc(CC(=O)Nc3cc(-c4ccc(Cl)cc4Cl)no3)cn2)c(C(N)=O)c1N [WO2022098970, Example 300] |
| > 6.82 | > 6.82 | > 6.82 | CC(C)n1nc(-c2ccc(CC(=O)Nc3cc(C4CCCCC4)no3)cn2)c(C(N)=O)c1N [WO2022098970, Example 301] |
| > 6.82 | > 6.82 | > 6.82 | CC(C)n1nc(-c2ccc(CC(=O)Nc3cc(-c4ccc(F)cc4Cl)no3)cn2)c(C(N)=O)c1N [WO2022098970, Example 302] |
| > 6.82 | > 6.82 | > 6.82 | CC(C)n1nc(-c2cnc(CC(=O)Nc3cc(-c4ccc(Cl)cc4Cl)no3)cn2)c(C(N)=O)c1N [WO2022098970, Example 308] |
| > 6.82 | > 6.82 | > 6.82 | CCC(C)(C)c1cc(NC(=O)Cc2cnc(-c3nn(C(C)C)c(N)c3C(N)=O)cn2)on1 [WO2022098970, Example 310] |
| > 6.82 | > 6.82 | > 6.82 | CC(C)n1nc(-c2ccc(CC(=O)Nc3cc(-c4ccc(Cl)cc4Cl)no3)nc2)c(C(N)=O)c1N [WO2022098970, Example 316] |
| > 6.82 | > 6.82 | > 6.82 | CC(C)n1nc(-c2ccc(CC(=O)Nc3cc(-c4ccccc4Cl)no3)nc2)c(C(N)=O)c1N [WO2022098970, Example 317] |
| > 6.82 | > 6.82 | > 6.82 | Cc1ccc(-c2cc(NC(=O)Cc3ccc(-c4nn(C(C)C)c(N)c4C(N)=O)cn3)on2)c(F)c1 [WO2022098970, Example 324] |
| > 6.82 | > 6.82 | > 6.82 | CC(C)n1nc(-c2ccc(CC(=O)Nc3cc(C(C)(C)CC(F)(F)F)on3)nc2)c(C(N)=O)c1N [WO2022098970, Example 335] |

More lines, now with the values behind:

| Structure (SMILES) | pIC50 [1] | pIC50 [2] | pIC50 [3] |
| --- | --- | --- | --- |
| CC(C)n1nc(-c2ccc(CC(=O)Nc3cc(CC4(C)CC4)no3)cc2)c(C(N)=O)c1N [WO2022098970, Example 1] | > 6.82 | > 6.82 | > 6.82 |
| CC(C)n1nc(-c2ccc(CC(=O)Nc3cc(C45CC(C4)C5)no3)cc2)c(C(N)=O)c1N [WO2022098970, Example 5] | > 6.82 | > 6.82 | > 6.82 |
| CC(C)n1nc(-c2ccc(CC(=O)NC3C=C(C(C)(C)C)SN3)cn2)c(C(N)=O)c1N (configuration not stated) [WO2022098970, Example 10] | > 6.82 | > 6.82 | > 6.82 |
| CC(C)n1nc(-c2ccc(CC(=O)Nc3cc(CC(C)(C)C)no3)c(F)c2F)c(C(N)=O)c1N [WO2022098970, Example 154] | > 6.82 | > 6.82 | > 6.82 |
| CC12CC(c3cc(NC(=O)Cc4ccc(-c5nn(C6(C)CC6)c(N)c5C(N)=O)c(F)c4F)on3)(C1)C2 [WO2022098970, Example 222] | > 6.82 | > 6.82 | > 6.82 |
| CC(C)n1nc(-c2ccc(CC(=O)Nc3cc(C(C)(C)C(F)(F)F)on3)cn2)c(C(N)=O)c1N [WO2022098970, Example 293] | > 6.82 | > 6.82 | > 6.82 |
| CC(C)n1nc(-c2ccc(CC(=O)Nc3cc(C4(C)CCCC4)no3)cn2)c(C(N)=O)c1N [WO2022098970, Example 294] | > 6.82 | > 6.82 | > 6.82 |
| CCC(C)(C)c1cc(NC(=O)Cc2ccc(-c3nn(C(C)C)c(N)c3C(N)=O)nc2)on1 [WO2022098970, Example 303] | > 6.82 | > 6.82 | > 6.82 |
| CC(C)n1nc(-c2ccc(CC(=O)Nc3cc(C(C)(F)F)no3)cn2)c(C(N)=O)c1N [WO2022098970, Example 306] | > 6.82 | > 6.82 | > 6.82 |
| CC(C)n1nc(-c2cnc(CC(=O)Nc3cc(C(C)(C)C)on3)cn2)c(C(N)=O)c1N [WO2022098970, Example 311] | > 6.82 | > 6.82 | > 6.82 |
| CC(C)n1nc(-c2ccc(CC(=O)Nc3cc(C(C)(C)C)on3)nc2)c(C(N)=O)c1N [WO2022098970, Example 318] | > 6.82 | > 6.82 | > 6.82 |
| CC(C)n1nc(-c2ccc(CC(=O)Nc3cc(-c4ccc(Cl)cc4F)no3)nc2)c(C(N)=O)c1N [WO2022098970, Example 321] | > 6.82 | > 6.82 | > 6.82 |
| CC(C)n1nc(-c2ccc(CC(=O)Nc3ccc(CN4CCN(C)CC4)c(C(F)(F)F)c3)nc2)c(C(N)=O)c1N [WO2022098970, Example 329] | > 6.82 | > 6.82 | > 6.82 |
| CC(C)n1nc(-c2ccc(CC(=O)Nc3cc(-c4ccc(Cl)c(F)c4Cl)no3)nc2)c(C(N)=O)c1N [WO2022098970, Example 330] | > 6.82 | > 6.82 | > 6.82 |
